Read-outs that look alike come from different tables or passages of the source.
Assays:
[1] = tested on: herpes simplex virus; settings: long-term suppressive treatment; cited from earlier work
[2] = tested on: HSV-2; assay: qPCR of HSV DNA copy number in dorsal root ganglia at day 28; format: in vivo, BALB/c mice
[3] = cited from earlier work
[4] = cited from earlier work; remark: listed apart in the source
[5] = tested on: HSV-2 MS strain; format: in vivo, BALB/c mice; settings: for Survival (surviving/total mice): 28 days; for Clinical Scores Overall Mean: daily vaginal clinical score, 4-point system of Table 4
[6] = single dose
[7] = tested on: HSV infected cells; settings: in HSV infected cells; cited from earlier work
[8] = in vivo; settings: female, BALB/c, mouse
[9] = for quantifiable in at least 1 of 3 mice through: PCV
[10] = Group 1 HSV-2 A 125 mg/kg PO daily
[11] = Group 2: Valcyclovir 125 mg/kg po
[12] = Group 2 HSV-2 B 63 mg/kg PO daily

CC(C)[C@H](N)C(=O)OCCOCn1cnc2c(=O)[nH]c(N)nc21 [A, Valacyclovir]
reduction of transmission risk [1]: 46%
Number Undetectable <3 (qPCR copy number/rxn) [2, 10]: 5
qPCR Copy number/rxn Overall Mean [2, 10]: 4.92 Copy number/rxn
half-life ([3]; approximately): 2.5 to 3.4 h
Mean AUC ([3]; in vivo): 2270 to 19620 ng·h/mL
time to reach maximum concentration ([3]; in vivo): 1.6 to 1.9 h
protein binding [4]: < 15%
clinical score index (fraction of mice with a clinical score) ([5]; Group 1 (A alone), A 125 mg/kg): 0.5
Clinical (mice that had a clinical score/total) [5, 10]: 5/10
Hair loss (mice that had hair loss/total) [5, 10]: 8/10
Illness (mice that had an illness score/total) [5, 10]: 10/10
Survival (surviving/total mice) [5, 10]: 10/10
Clinical Scores Overall Mean [5, 10]: 0.07413
Clinical Observations: Dead (animals) [6, 11]: 0
Clinical Observations: Hypoactivity (animals) [6, 11]: 0
Clinical Observations: Normal (animals) [6, 11]: 12
Clinical Observations: Ruffled Fur (animals) [6, 11]: 0
Clinical Observations: Shoveling (animals) [6, 11]: 0
Clinical Observations: Squinting (animals) [6, 11]: 0

CC(=O)OCC(CCn1cnc2cnc(N)nc21)COC(C)=O [B, Famciclovir]
Number Undetectable <3 (qPCR copy number/rxn) [2, 12]: 2
qPCR Copy number/rxn Overall Mean [2, 12]: 28.32 Copy number/rxn
intracellular half-life [7]: 10 to 20 h
bioavailability ([3]; in vivo): 77%
plasma half-life ([3]; in vivo): 2 to 2.5 h
time to reach maximum concentration ([3]; in vivo): 0.5 to 0.75 h
clinical score index (fraction of mice with a clinical score) ([5]; Group 2 (B alone), B 63 mg/kg): 0.8
Clinical (mice that had a clinical score/total) [5, 12]: 8/10
Hair loss (mice that had hair loss/total) [5, 12]: 6/10
Illness (mice that had an illness score/total) [5, 12]: 9/10
Survival (surviving/total mice) [5, 12]: 9/10
Clinical Scores Overall Mean [5, 12]: 0.3125
Clinical Observations: Dead (animals) ([6]; Group 3: Famcyclovir 63 mg/kg po, died during first blood collection): 1
Clinical Observations: Dead (animals) ([6]; Group 3: Famcyclovir 63 mg/kg po, died during first blood collection, listed as FCV): another animal died

Nc1nc2c(ncn2CCC(CO)CO)c(=O)[nH]1 [PCV, penciclovir]
AUC(0-inf) ([8]; iv, 63 mg/kg, AUCinf): 15200 ng·h/mL
AUC(0-t) ([8]; iv, 63 mg/kg, AUClast): 15100 ± 2600 ng·h/mL
AUC(0-t) ([8]; iv, 63 mg/kg, AUClast Mean): 15100 ng·h/mL
Cmax ([8]; iv, 63 mg/kg, Cmax): 8800 ng/mL
Cmax ([8]; iv, 63 mg/kg, Cmax Mean): 8800 ng/mL
Tmax ([8]; iv, 63 mg/kg, Tmax, Group 1: 125 mg/kg VACV and 63 mg/kg FCV, iv, single dose, plasma): 0.083 h
half-life ([8]; iv, 63 mg/kg, t1/2, Group 1: 125 mg/kg VACV and 63 mg/kg FCV, iv, single dose, plasma): 1.29 h
half-life ([8]; iv, 63 mg/kg, t1/2, plasma PCV, Group 1: 125 mg/kg VACV and 63 mg/kg FCV iv): 1.29 h
AUC(0-inf) ([8]; po, 16 mg/kg, AUCinf): 6200 ng·h/mL
AUC(0-t) ([8]; po, 16 mg/kg, AUClast Mean): 6100 ng·h/mL
Cmax ([8]; po, 16 mg/kg, Cmax Mean): 4590 ng/mL
Tmax ([8]; po, 16 mg/kg, Tmax): 0.5 h
half-life ([8]; po, 16 mg/kg, t1/2): 1.89 h
AUC(0-inf) ([8]; po, 32 mg/kg, AUCinf): 5140 ng·h/mL
AUC(0-t) ([8]; po, 32 mg/kg, AUClast Mean): 5010 ng·h/mL
Cmax ([8]; po, 32 mg/kg, Cmax Mean): 3150 ng/mL
Tmax ([8]; po, 32 mg/kg, Tmax): 0.5 h
half-life ([8]; po, 32 mg/kg, t1/2): 2.34 h
AUC(0-inf) ([8]; po, 63 mg/kg): 11300 ng·h/mL
AUC(0-t) ([8]; po, 63 mg/kg): 10600 ± 727 ng·h/mL
Cmax ([8]; po, 63 mg/kg): 8120 ± 565 ng/mL
Tmax ([8]; po, 63 mg/kg): 0.25 h
half-life ([8]; po, 63 mg/kg): 0.97 h
AUC(0-inf) ([8]; po, 63 mg/kg, AUCinf): 19200 ng·h/mL
AUC(0-t) ([8]; po, 63 mg/kg, AUClast Mean): 18400 ng·h/mL
Cmax ([8]; po, 63 mg/kg, Cmax Mean): 7100 ng/mL
Tmax ([8]; po, 63 mg/kg, Tmax): 0.5 h
half-life ([8]; po, 63 mg/kg, t1/2): 2.34 h
AUC(0-inf) ([8]; po, 125 mg/kg, AUCinf): 50900 ng·h/mL
AUC(0-t) ([8]; po, 125 mg/kg, AUClast Mean): 50200 ng·h/mL
Cmax ([8]; po, 125 mg/kg, Cmax Mean): 16900 ng/mL
half-life ([8]; po, 125 mg/kg, t1/2): 1.31 h
AUC(0-inf) ([8]; po, AUCinf): 85500 ng·h/mL
AUC(0-t) ([8]; po, AUClast Mean): 84500 ng·h/mL
Cmax ([8]; po, Cmax Mean): 31200 ng/mL
Tmax ([8]; po, Tmax, Group 8: VACV 500 mg/kg and FCV 250 mg/kg in combination, po, plasma): 1 h
half-life ([8]; po, t1/2, Group 8: VACV 500 mg/kg and FCV 250 mg/kg in combination, po, plasma): 4.3 h
half-life ([8]; po, t1/2, plasma PCV, Group 8: 500 mg/kg VACV + 250 mg/kg FCV po): 4.3 h
t1/2 ([9]; Group 3: 63 mg/kg FCV, po, single dose, plasma): 0.97 h
quantifiable in at least 1 of 3 mice through ([9]; Group 1: 125 mg/kg VACV + 63 mg/kg FCV iv): 24 h
quantifiable in at least 1 of 3 mice through ([9]; Group 5: 63 mg/kg VACV + 32 mg/kg FCV po): 24 h
quantifiable in at least 1 of 3 mice through ([9]; Group 8: 500 mg/kg VACV + 250 mg/kg FCV po): 24 h
AUClast Mean ([9]; female, BALB/c, mouse, in vivo, po, 63 mg/kg): 10609 ng·h/mL

Source: patent US11696918B2 (priority 2019, dated 2023)
